Assay results reported in patent US7122307B2, “High throughput biological heart rate monitor that is molecularly determined” (The Trustees of Columbia University in the City of New York, priority 2001, dated 2006).
Blank lines part the entries; values can stand above or below the compound they belong to.

Tests used:
[1] = test system: HCN2 over-expressing cell culture; assay: Spontaneous rate (action potential recording) of AdHCN2 infected culture during drug superfusion; format: cell-based, rat; details: for spontaneous rate during drug exposure: AdHCN2 infected culture, same culture during superfusion with drug, control records: 48 (isoproterenol), 54 (carbachol), 96 (ZD-7288) beats/min; for effect on heart rate of the culture (in words): HCN2 over-expressing cell culture
Source text: Adult rats were anesthetized with ketamine-xylazine before cardiectomy, and neonatal rats decapitated, in accordance with the Institutional Animal Care and Use Committee protocols of Columbia University. For preparing cell cultures of newborn ventricles, a standard trypsin dissociation method was employed (21). The cells were preplated to reduce fibroblast proliferation, cultured initially in serum-containing medium (except when being transfected with plasmids as described below) and then switched to a serum free medium (SFM) after 24 hours. Action potential studies were conducted on 4 day old monolayer cultures plated directly onto fibronectin coated 9×22 mm glass coverslips. For voltage clamp experiments, 4–6 day old monolayer cultures were resuspended by brief (2–3 min) exposure to 0.25% trypsin, then the cells replated onto fibronectin-coated coverslips and studied within 2–8 hours.
For adult rat ventricular myocytes, AdHCN2 infection was carried out 2–3 hours after the isolated cells were plated onto coverslips. For neonatal cells, the infection was done on the monolayer culture 1–3 days after plating. In either case, the culture medium was removed from the dishes (35-mm) and the inoculum of 0.2–0.3 ml/dish was added containing AdHCN2. The value of m.o.i. (multiplicity of infection—the ratio of viral units to cells) was 15–100. The inoculum was dispersed over the cells every 20 min by gently “tilting” the dishes so that the cells were evenly exposed to the viral particles. The dishes were kept at 37° C. in a CO2 incubator during the adsorption period of two hours, then the inoculum was discarded and the dishes were washed and refilled with the appropriate culture medium. The dishes remained in the incubator for 24–48 hours before electrophysiological experiments were conducted. In some experiments, an adenoviral construct for GFP (AdGFP) was employed.
The whole-cell voltage clamp technique was employed to record native If or expressed IHCN2 or IHCN4. Action potentials were recorded in current clamp mode, again using a whole cell patch electrode/Experiments were carried out on cells supervised at 35° C. Extracellular solution contained (mmol/L): NaCl, 140; NaOH, 2.3; MgCl2, 1; KCl, 5.4; CaCl2, 1.0; HEPES, 5; glucose, 10; pH 7.4. To record from myocytes expressing native currents (If) myocytes expressing HCN2 (IHCN2) or HCN4 (IHCN4), [K^+]0 was increased to 10 mmol/L, and MnCl2 (2 mmol/L) and BaCl2 (4 mmol/L) added to the superfusate to eliminate calcium and inward rectifier (IK1) currents. In some experiments CsCl (4 mmol/L) was used extracellularly to identify the pacemaker current as the Cs-sensitive current. The patch pipette solution included (mmol/L): aspartic acid, 130; KOH, 146; NaCl, 10; CaCl2, 2; EGTA-KOH, 5; Mg-ATP, 2; HEPES-KOH, 10, pH 7.2. Where indicated, 10 μmol/L cAMP was included in the pipette solution. A fast solution changing apparatus expedited the experimental protocols. The pipette resistance was typically […]. An Axopatch-200B amplifier and pClampS software (Axon Instruments) were used for acquisition and data analysis. The pacemaker current (If, IHCN2 or IHCN4) was defined as the time-dependent component taken at the end of a hyperpolarizing step to voltages in the range of −35 to −145 mV, while the holding potential was −35 mV unless otherwise indicated. For If and IHCN2 measurements, the hyperpolarizing test pulses were 3 or 6 sec long throughout the voltage range. To accurately record steady-state currents for the more slowly activating IHCN4, the test voltages varied in length from 6 sec at −125 mV to as long as 60 sec at −55 mV. When recording tail currents, the test pulses were followed by an 8-sec voltage step to −125 mV. In all pacemaker current protocols, each episode ended with a pulse to −5 mV for 0.5 sec to insure full deactivation.
The normal cardiac pacemaker beats independently but is regulated by neurotransmitters released from sympathetic and parasympathetic neurons. […]

expressed HCN2 current = target: T1, expressed HCN2 current (Mus musculus, UniProt O88703); assay: Whole-cell voltage clamp: shift of the activation relation of expressed HCN2 current in ventricular myocytes; format: cell-based; details: for shift of the voltage dependence of HCN2: saturating cAMP (10 μmol/L) in the pipette
T1 construct: expressed in transfected cells; host or cells: neonatal and adult rat ventricular myocytes in primary culture, infected with adenovirus AdHCN2 (or lipofectin-transfected with pCI-mHCN2)
T1 sequence (O88703 1-863): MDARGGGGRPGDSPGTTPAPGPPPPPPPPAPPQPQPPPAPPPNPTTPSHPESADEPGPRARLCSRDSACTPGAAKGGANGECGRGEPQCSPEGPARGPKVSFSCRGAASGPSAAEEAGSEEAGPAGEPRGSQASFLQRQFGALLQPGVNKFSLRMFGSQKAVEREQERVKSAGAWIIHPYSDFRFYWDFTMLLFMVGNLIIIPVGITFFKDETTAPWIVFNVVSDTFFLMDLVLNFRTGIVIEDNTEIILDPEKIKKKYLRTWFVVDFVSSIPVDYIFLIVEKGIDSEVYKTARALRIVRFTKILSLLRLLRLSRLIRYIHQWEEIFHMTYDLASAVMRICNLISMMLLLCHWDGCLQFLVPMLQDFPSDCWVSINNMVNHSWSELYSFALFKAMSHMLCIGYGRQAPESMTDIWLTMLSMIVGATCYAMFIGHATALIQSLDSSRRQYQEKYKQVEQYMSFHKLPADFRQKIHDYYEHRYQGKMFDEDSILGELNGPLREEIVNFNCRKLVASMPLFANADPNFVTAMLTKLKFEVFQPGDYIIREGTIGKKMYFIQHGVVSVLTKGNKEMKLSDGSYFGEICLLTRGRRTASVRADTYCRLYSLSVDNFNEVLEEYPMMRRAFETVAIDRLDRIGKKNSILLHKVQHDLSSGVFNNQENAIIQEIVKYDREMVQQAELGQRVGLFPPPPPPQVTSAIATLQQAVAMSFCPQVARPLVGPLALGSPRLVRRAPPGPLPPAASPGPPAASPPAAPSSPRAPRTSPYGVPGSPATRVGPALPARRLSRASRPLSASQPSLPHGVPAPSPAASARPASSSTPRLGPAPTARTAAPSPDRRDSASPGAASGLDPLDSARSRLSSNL
Procedure: The whole-cell voltage clamp technique was employed to record native If or expressed IHCN2 or IHCN4. Action potentials were recorded in current clamp mode, again using a whole cell patch electrode/Experiments were carried out on cells supervised at 35° C. Extracellular solution contained (mmol/L): NaCl, 140; NaOH, 2.3; MgCl2, 1; KCl, 5.4; CaCl2, 1.0; HEPES, 5; glucose, 10; pH 7.4. […] In some experiments CsCl (4 mmol/L) was used extracellularly to identify the pacemaker current as the Cs-sensitive current. […] Where indicated, 10 μmol/L cAMP was included in the pipette solution. A fast solution changing apparatus expedited the experimental protocols. The pipette resistance was typically 1–3 M. An Axopatch-200B amplifier and pClampS software (Axon Instruments) were used for acquisition and data analysis. […] For If and IHCN2 measurements, the hyperpolarizing test pulses were 3 or 6 sec long throughout the voltage range. […] In all pacemaker current protocols, each episode ended with a pulse to −5 mV for 0.5 sec to insure full deactivation.
The activation relation of the native or expressed current can be determined from the steady-state I-V relation.

native pacemaker current = details: sinus node; cited from earlier work

SMILES: CCN(c1ccccc1)c1cc(=NC)n(C)c(C)n1.Cl [ZD-7288]
spontaneous rate during drug exposure [1]: 78 beats/min | effect on heart rate of the culture (in words) [1]: slows the rate

SMILES: Nc1ncnc2c1ncn2[C@@H]1O[C@@H]2COP(=O)(O)O[C@H]2[C@H]1O [cAMP, cyclic adenosine monophosphate]
shift of the voltage dependence of HCN2 (expressed HCN2 current; adult myocytes infected with AdHCN2): 14 mV | shift of the voltage dependence of HCN2 (expressed HCN2 current; neonate myocytes infected with AdHCN2): 17 mV

SMILES: C[N+](C)(C)CCOC(N)=O [carbachol]
spontaneous rate during drug exposure [1]: 45 beats/min | effect on heart rate of the culture (in words) [1]: decrease in heart rate

positive shift of the activation curve of expressed HCN2 current (expressed HCN2 current; threshold concentration of isoproterenol, neonatal ventricular myocyte, two-step voltage protocol, one cell): approximately 5 mV
SMILES: CC(C)NCC(O)c1ccc(O)c(O)c1 (stereo not shown) [isoproterenol]
spontaneous rate during drug exposure [1]: 63 beats/min | effect on heart rate of the culture (in words) [1]: increase in heart rate | threshold concentration on native pacemaker current (native pacemaker current): approximately 1 nM
